{
  "source": "patent US11576913B2",
  "about": "(priority 2018, dated 2023)",
  "key": {"[1]": {"tested_on": "healthy, non-dependent, recreational sedative users", "assay": "Human abuse potential study, Drug Liking VAS", "type": "in vivo", "conditions": "for Drug Liking VAS - EMAX LSMean: N = 50, 100 point bipolar scale; for Drug liking from placebo, Triazolam 1 mg compared with Triazolam 0.5 mg (words): 1 mg vs 0.5 mg", "procedure": "This study was designed as a randomized, single-dose, double-blinded, double dummy, crossover study. The study population was healthy, nondependent recreational polydrug users with a history of Central Nervous System (CNS) depressant use.\nSubjects were screened no more than 28 days before check-in of period 1. Study drug was administered in each period according to the study randomization schedule. During Qualification, there was a minimum 24 hour washout period between each study drug administration. During the Treatment phase, there was a minimum 48-hour washout period between each study drug administration. Subjects were confined to the unit the day prior to, and for at least approximately 24 hours following, study drug administration during each period. If subjects were discharged between treatment periods, subjects returned to the unit the day prior to dosing.\nThe Qualification Phase was designed to ensure that polydrug abusing subjects with self-reported recreational CNS depressant/sedative drug experience were able to tolerate and discriminate between orally administered triazolam tablets and placebo as well as to report positive subjective effects of the drug in a controlled laboratory setting. This phase was also used to exclude “placebo responders”, i.e., subjects who report subjective effects of placebo. This phase also helped familiarize subjects with, and trained them in the use of, various scales and questionnaires that measure subjective effects.\nThe comparators in an abuse potential study are typically controlled substances from the same pharmacologic class as the investigational drug. However, Compound (1C) is a novel drug class for which no controlled substances/drugs of abuse are available for comparison. […] There was no evidence of other effects of interest to abusers, such as perceptual disturbances or stimulation. […] Placebo control was used to establish the frequency and magnitude of changes in clinical endpoints that may occur in the absence of active treatment as well as to minimize subject and investigator bias.\nIn all of the study phases, treatments were blinded to the greatest extent possible to reduce potential bias during data collection and evaluation of clinical endpoints. Because study subjects were recreational drug users and familiar with the effects of the drug substances being studied, the double-dummy technique was be used in the Treatment Phase to maintain blinding. Subjects received tablets orally in each treatment period. Placebo was matched in size and shape to each of the tablet types, and a method to blind subjects will be employed.\nFor each phase, subjects received treatments according to the randomization schema. During the Treatment Phase, subjects were be randomized to 1 of sequences in a 6×6 Williams square crossover design.\nCompound (1C) was administered orally in an immediate release tablet comprising the pharmaceutically acceptable excipients croscarmellose sodium (FMC Health and Nutrition, Philadelphia, Pa.), hydroxypropylcellulose (Ashland Inc., Covington, Ky.), microcrystalline cellulose (Dupont, Chicago, Ill.), mannitol (SPI Pharma, Wilmington, Del.), magnesium stearate (PlusPharma Inc., Vista, Calif.), and sodium lauryl sulfate (BASF Corp, Upper St. Clair, Pa.). […] Placebo tablets matching the Compound (1C) tablets were orally administered in the same way. The placebo tablets comprised the above-described pharmaceutically acceptable excipients but with no Compound (1C). Triazolam was administered at a dose of 0.5 or 1 mg. Trial endpoints are provided below.\nPeak Maximum Effect (Emax) for Drug Liking (“at this moment”) visual analog scale (“VAS”), was measured by study participants providing a score on a 100 point bipolar scale with 100 as strong liking, 50 as the neutral point of neither liking nor disliking, and 0 as strong disliking. […]"}, "[2]": {"tested_on": "healthy, non-dependent, recreational sedative users", "assay": "Human abuse potential study, adverse events and tolerability", "type": "in vivo", "conditions": "N = 50", "procedure": "Adverse events were coded to MedDRA terms. Data for AEs were analyzed using the treatment-emergent signs and symptoms (TESS) philosophy. Treatment-emergent signs and symptoms are defined as AEs that: • Emerge during treatment, having been absent at pretreatment; or • Reemerge during treatment, having been present at pretreatment but stopped prior to treatment; or • Worsen in intensity during treatment relative to the pretreatment state, when the AE is continuous.\nSubjects were counted only once in the incidence count for a specific MedDRA Preferred Term, although a MedDRA Preferred Term might be reported more than once for a particular subject. Separate summaries will be provided for Treatment-emergent AEs (“TEAEs”) by maximum intensity (mild, moderate, severe) and relationship (yes, no) to study drug. A TEAE was considered related to study drug if the investigator reported the event to be “definitely, probably, possibly, or unlikely” related to treatment on the CRF."}, "[3]": {"conditions": "triazolam tablets administered orally; cited from earlier work"}},
  "data": [
    {"compound": "Cc1nnc2n1-c1ccc(Cl)cc1C(c1ccccc1Cl)=NC2", "note": "[Triazolam, triazolam, reference compound]", "values": [
      {"measurement": "Drug Liking VAS - EMAX Diff from Placebo LSMean", "setting": "[1]; 0.5 mg", "value": 20.4, "unit": "points"},
      {"measurement": "Drug liking compared with placebo (words)", "setting": "[1]; 0.5 mg", "value": "significant"},
      {"measurement": "Drug Liking VAS - EMAX LSMean", "setting": "[1]; 0.5 mg single oral dose", "value": 75.5},
      {"measurement": "Drug liking compared with placebo (words)", "setting": "[1]; 0.5 mg, listed as triazolam", "value": "significantly greater than placebo"},
      {"measurement": "Drug Liking VAS - EMAX Diff from Placebo LSMean", "setting": "[1]; 1 mg", "value": 23.5, "unit": "points"},
      {"measurement": "Drug liking compared with placebo (words)", "setting": "[1]; 1 mg", "value": "significant"},
      {"measurement": "Drug Liking VAS - EMAX LSMean", "setting": "[1]; 1 mg single oral dose", "value": 78.6},
      {"measurement": "Drug liking from placebo, Triazolam 1 mg compared with Triazolam 0.5 mg (words)", "setting": "[1]", "value": "Triazolam 1 mg had greater drug liking from"},
      {"measurement": "Drug liking from placebo, Triazolam 1 mg compared with Triazolam 0.5 mg (words)", "setting": "[1]; listed as triazolam", "value": "greater drug liking from placebo than triazolam 0.5 mg"},
      {"measurement": "Drug liking compared with placebo (words)", "setting": "[1]; 1 mg, listed as triazolam", "value": "significantly greater than placebo"},
      {"measurement": "Amnesia", "setting": "[2]; 0.5 mg", "value": "3 (6) n (%)"},
      {"measurement": "Ataxia", "setting": "[2]; 0.5 mg", "value": "21 (42) n (%)"},
      {"measurement": "Diplopia", "setting": "[2]; 0.5 mg", "value": "4 (8) n (%)"},
      {"measurement": "Dizziness", "setting": "[2]; 0.5 mg", "value": "7 (14) n (%)"},
      {"measurement": "Euphoric mood", "setting": "[2]; 0.5 mg", "value": "1 (2) n (%)"},
      {"measurement": "Headache", "setting": "[2]; 0.5 mg", "value": "2 (4) n (%)"},
      {"measurement": "Hiccups", "setting": "[2]; 0.5 mg", "value": "10 (20) n (%)"},
      {"measurement": "Nausea", "setting": "[2]; 0.5 mg", "value": "0 n (%)"},
      {"measurement": "Somnolence", "setting": "[2]; 0.5 mg", "value": "45 (90) n (%)"},
      {"measurement": "Vision blurred", "setting": "[2]; 0.5 mg", "value": "3 (6) n (%)"},
      {"measurement": "Amnesia", "setting": "[2]; 1 mg", "value": "12 (24) n (%)"},
      {"measurement": "Ataxia", "setting": "[2]; 1 mg", "value": "28 (56) n (%)"},
      {"measurement": "Diplopia", "setting": "[2]; 1 mg", "value": "5 (10) n (%)"},
      {"measurement": "Dizziness", "setting": "[2]; 1 mg", "value": "6 (12) n (%)"},
      {"measurement": "Euphoric mood", "setting": "[2]; 1 mg", "value": "2 (4) n (%)"},
      {"measurement": "Headache", "setting": "[2]; 1 mg", "value": "0 n (%)"},
      {"measurement": "Hiccups", "setting": "[2]; 1 mg", "value": "14 (28) n (%)"},
      {"measurement": "Nausea", "setting": "[2]; 1 mg", "value": "1 (2) n (%)"},
      {"measurement": "Somnolence", "setting": "[2]; 1 mg", "value": "49 (98) n (%)"},
      {"measurement": "Vision blurred", "setting": "[2]; 1 mg", "value": "2 (4) n (%)"},
      {"measurement": "Time to maximum concentration", "setting": "[3]", "value": "~1.3", "unit": "h"}
    ]}
  ]
}
